The values below come from US20240246955A1, “TROPOMYOSIN RECEPTOR KINASE (TRK) DEGRADATION COMPOUNDS AND METHODS OF USE” (CULLGEN (SHANGHAI), INC., priority 2021, published 2024).

Type in all cases: cell-based
Test [1] relates to TRKA G595R mutated KM12 cells. Briefly: Cell viability assay in TRKA G595R mutated KM12 cells (CellTiter-Glo). As to conditions: Homo sapiens, 72 h, 3 days. As to the method: (§1) KM12, TRKA G595R mutated KM12, HEL, and other cells were cultured at 37° C. with 5% CO2 in DMEM or RPMI 1640 Medium supplemented with 10% fetal bovine serum. Cells were authenticated using the short tandem repeat (STR) assays. Mycoplasma test results were negative.
(§2) Cells were seeded at a density of 5000 cells per well in 96-well assay plates and treated with test compounds following a 11-point 3-fold serial dilution. Three days later, cell viability was determined using the CellTiter-Glo assay kit (Promega) according to the manufacturer's instructions. The dose-response curves were determined and IC50 values were calculated using the GraphPad Prism software following a nonlinear regression (least squares fit) method.
The activities of selected compounds on cell viability (IC50 values) and TMP3-TRKA degradation (percentage degradation at 10 nM) in KM12 cells or KM12-G595R mutated KM12 cells (KM12-G595R) are listed in Table 2.
A general note: Cellular ATP, detected with luciferase, serves as a proxy for viable cell number.

The next test relates to KM12 cells. Description: KM12 cell viability assay (CellTiter-Glo). As to conditions: Homo sapiens, 72 h; KM12 cells, 3 days, CellTiter-Glo. As to the method: The kinase activity of TRK is known to play important roles in tumors expressing TRK-fusion proteins, as TRK kinase inhibitors compromise cell proliferation, survival, and induce marked clinical responses (Amatu et al., 2016; Drilon et al., 2018; Drilon et al., 2017; Khotskaya et al., 2017). KM12 cells seeded in 96-well plates were treated with heterobifunctional compounds following a 11-point 3-fold serial dilution. Three days after treatment, cell viability was determined using the CellTiter-Glo kit, and normalized to the mean values of 3 replicates of untreated cells. Dose-dependent response was analyzed following the least-squares non-linear regression method using the GraphPad Prism software. Each data point in the figure represents the mean values of three technical replicates ±standard deviation.
KM12 cells seeded in 96-well plates were treated with heterobifunctional compounds following a 11-point 3-fold serial dilution for 3 days.
as §1, §2

The target in another test is T1, TPM3-TRKA fusion protein (Homo sapiens, UniProt P04629).
T1 construct: TPM3 (N-terminal part of tropomyosin alpha-3, natural fusion partner); endogenous in cells; host or cells: KM12 colon cancer cells; the other entry of the earlier key: TPM3 (P06753, Tropomyosin alpha-3 chain)
T1 sequence (P04629 with tags, fused parts or gaps): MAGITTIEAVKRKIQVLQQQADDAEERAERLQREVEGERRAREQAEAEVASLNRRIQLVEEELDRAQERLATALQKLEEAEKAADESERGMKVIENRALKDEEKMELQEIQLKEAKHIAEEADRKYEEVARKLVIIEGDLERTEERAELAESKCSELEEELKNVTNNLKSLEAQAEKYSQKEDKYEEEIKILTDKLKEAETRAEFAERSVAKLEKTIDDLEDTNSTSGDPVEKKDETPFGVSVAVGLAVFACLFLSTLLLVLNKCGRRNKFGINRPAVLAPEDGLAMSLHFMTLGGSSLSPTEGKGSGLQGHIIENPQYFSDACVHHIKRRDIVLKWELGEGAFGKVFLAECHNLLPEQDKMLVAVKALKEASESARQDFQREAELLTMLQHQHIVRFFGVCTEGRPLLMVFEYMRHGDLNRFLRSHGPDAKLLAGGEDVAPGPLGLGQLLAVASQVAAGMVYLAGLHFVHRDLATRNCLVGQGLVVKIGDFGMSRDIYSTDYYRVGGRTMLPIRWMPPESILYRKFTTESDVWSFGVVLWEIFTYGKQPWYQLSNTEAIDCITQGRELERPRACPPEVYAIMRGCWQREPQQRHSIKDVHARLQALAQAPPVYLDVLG
Briefly: TPM3-TRKA degradation in KM12 cells (Western blot). As to conditions: 16 hours, TRK protein, immunoblot; for inhibition at 0.01 µM: 10 nM; for inhibition at 0.1 µM: 100 nM. Here is the method:
Specific exemplary heterobifunctional compounds were characterized in KM12 cells. KM12 cells that express TPM3-TRKA fusion protein were treated with 10 nM or 100 nM heterobifunctional compounds disclosed herein or their corresponding warheads/inhibitors for 16 hours. Cells were collected, lysed and subject to immunoblotting using an antibody specific to TRK proteins.
KM12 cells were treated with heterobifunctional compounds at 10 nM or 100 nM for 16 hours.
Cultured cells were washed with cold PBS once and lysed in cold RIPA buffer supplemented with protease inhibitors and phosphatase inhibitors (Beyotime Biotechnology). The solutions were then incubated at 4° C. for 30 minutes with gentle agitation to fully lyse cells. Cell lysates were centrifuged at 13,000 rpm for 10 minutes at 4° C. and pellets were discarded. Total protein concentrations in the lysates were determined by BCA assays (Beyotime Biotechnology). Cell lysates were mixed with Laemmli loading buffer to 1× and heated at 99° C. for 5 min. Proteins were resolved on SDS-PAGE and visualized by chemiluminescence. Images were taken by a ChemiDoc MP Imaging system (Bio-Rad). Protein bands were quantitated using the software provided by Bio-Rad.
The percentage of TRK protein degradation of each compound at 10 nM and 100 nM was determined in KM12 cells as described in Methods. The percentage of degradation of each compound was indicated in the following categories: N/A: data not available; −: no degradation; +: degradation less than 50%; ++: degradation equal or greater than 50% but less than […]; +++: degradation equal or greater than 80%.
A general note: In western blotting, separated proteins are transferred to a membrane and probed.

For orientation: IC50 means the concentration that gives 50% inhibition. One may read the inhibition as the change of the read-out against control, counted positive when it falls.

Take `COCCN1C[C@@H](NC(=O)Nc2c(C)c(-c3cnc(N4CCN(CCCc5cccc6c5C(=O)N(C5CCC(=O)NC5=O)C6=O)CC4)nc3)nn2-c2ccccc2)[C@H](c2cccc(F)c2)C1` (stereo partly drawn) [CPD-029, 1-(3-(2-(4-(3-(2-(2,6-dioxopiperidin-3-yl)-1,3-dioxoisoindolin-4-yl)propyl)piperazin-1-yl)pyrimidin-5-yl)-4-methyl-1-phenyl-1H-pyrazol-5-yl)-3-((3S,4R)-4-(3-fluorophenyl)-1-(2-methoxyethyl)pyrrolidin-3-yl)urea]: the figures for the IC50 (in test [1]; with KM12 cells) were 277 nM and 13.4 nM, respectively. Also, on TPM3-TRKA fusion protein, the inhibition at 0.01 µM was less than 50%. Also, at TPM3-TRKA fusion protein, the inhibition at 0.1 µM fell in the range of 50 to 800%.

Turning to `COCCN1C[C@@H](NC(=O)Nc2c(C)c(-c3cnc(N4CCN(CCNc5cccc6c5C(=O)N(C5CCC(=O)NC5=O)C6=O)CC4)nc3)nn2-c2ccccc2)[C@H](c2cccc(F)c2)C1` (stereo partly drawn) [CPD-030, 1-(3-(2-(4-(2-((2-(2,6-dioxopiperidin-3-yl)-1,3-dioxoisoindolin-4-yl)amino)ethyl)piperazin-1-yl)pyrimidin-5-yl)-4-methyl-1-phenyl-1H-pyrazol-5-yl)-3-((3S,4R)-4-(3-fluorophenyl)-1-(2-methoxyethyl)pyrrolidin-3-yl)urea], the IC50 in test [1] was determined as 5.13 nM. The molecule further yielded an IC50 in the test on KM12 cells of 1.09 nM. Besides, at TPM3-TRKA fusion protein, the inhibition at 0.01 µM was 50 to 800% and the inhibition at 0.1 µM is 50 to 800%.

As to `COCCN1C[C@@H](NC(=O)Nc2c(C)c(-c3cnc(N4CCN(CCOc5cccc6c5C(=O)N(C5CCC(=O)NC5=O)C6=O)CC4)nc3)nn2-c2ccccc2)[C@H](c2cccc(F)c2)C1` (stereo partly drawn) [CPD-027, 1-(3-(2-(4-(2-((2-(2,6-dioxopiperidin-3-yl)-1,3-dioxoisoindolin-4-yl)oxy)ethyl)piperazin-1-yl)pyrimidin-5-yl)-4-methyl-1-phenyl-1H-pyrazol-5-yl)-3-((3S,4R)-4-(3-fluorophenyl)-1-(2-methoxyethyl)pyrrolidin-3-yl)urea], the IC50 in test [1] turned out to be 4.47 nM; in the test with KM12 cells, 3.13 nM. Also, the inhibition at 0.01 µM against TPM3-TRKA fusion protein lay within 50 to 800%. In addition, the inhibition at 0.1 µM on TPM3-TRKA fusion protein fell in the range of 50 to 800%.

Molecule `COCCN1C[C@@H](NC(=O)Nc2c(C)c(-c3cnc(N4CCN(CCc5ccc6c(c5)C(=O)N(C5CCC(=O)NC5=O)C6=O)CC4)nc3)nn2-c2ccccc2)[C@H](c2cccc(F)c2)C1` (stereo partly drawn) [CPD-033, 1-(3-(2-(4-(2-(2-(2,6-dioxopiperidin-3-yl)-1,3-dioxoisoindolin-5-yl)ethyl)piperazin-1-yl)pyrimidin-5-yl)-4-methyl-1-phenyl-1H-pyrazol-5-yl)-3-((3S,4R)-4-(3-fluorophenyl)-1-(2-methoxyethyl)pyrrolidin-3-yl)urea] showed an IC50 in test [1] of 94.6 nM. The molecule also showed a half-inhibitory concentration (IC50) in the test on KM12 cells of 14.4 nM. In addition, at TPM3-TRKA fusion protein, the inhibition at 0.01 µM lay in the range of 50 to 800% and the inhibition at 0.1 µM fell in the range of 50 to 800%.

For `COCCN1C[C@@H](NC(=O)Nc2c(C)c(-c3cnc(N4CCN(CCOc5ccc6c(c5)C(=O)N(C5CCC(=O)NC5=O)C6=O)CC4)nc3)nn2-c2ccccc2)[C@H](c2cccc(F)c2)C1` (stereo partly drawn) [CPD-028, 1-(3-(2-(4-(2-((2-(2,6-dioxopiperidin-3-yl)-1,3-dioxoisoindolin-5-yl)oxy)ethyl)piperazin-1-yl)pyrimidin-5-yl)-4-methyl-1-phenyl-1H-pyrazol-5-yl)-3-((3S,4R)-4-(3-fluorophenyl)-1-(2-methoxyethyl)pyrrolidin-3-yl)urea], the IC50 in test [1] worked out at 30.4 nM. Also, half-maximal inhibition in the test on KM12 cells (IC50) was put at 4.1 nM. On TPM3-TRKA fusion protein, the inhibition at 0.01 µM was greater than 80% and the inhibition at 0.1 µM was 50 to 800%.

In test [1], `COCCN1C[C@@H](NC(=O)Nc2c(C)c(-c3cnc(N4CCN(C(=O)CCc5ccc6c(c5)C(=O)N(C5CCC(=O)NC5=O)C6=O)CC4)nc3)nn2-c2ccccc2)[C@H](c2cccc(F)c2)C1` (stereo partly drawn) [CPD-026, 1-(3-(2-(4-(3-(2-(2,6-dioxopiperidin-3-yl)-1,3-dioxoisoindolin-5-yl)propanoyl)piperazin-1-yl)pyrimidin-5-yl)-4-methyl-1-phenyl-1H-pyrazol-5-yl)-3-((3S,4R)-4-(3-fluorophenyl)-1-(2-methoxyethyl)pyrrolidin-3-yl)urea] displayed an IC50 of 301 nM. Further, the IC50 with KM12 cells turned out to be 42.1 nM. At TPM3-TRKA fusion protein, the inhibition at 0.01 µM is greater than 80% and the inhibition at 0.1 µM was greater than 80%.

As for `COCCN1C[C@@H](NC(=O)Nc2c(C)c(-c3cnc(N4CCN(C(=O)COc5ccc6c(c5)C(=O)N(C5CCC(=O)NC5=O)C6=O)CC4)nc3)nn2-c2ccccc2)[C@H](c2cccc(F)c2)C1` (stereo partly drawn) [CPD-023, 1-(3-(2-(4-(2-((2-(2,6-dioxopiperidin-3-yl)-1,3-dioxoisoindolin-5-yl)oxy)acetyl)piperazin-1-yl)pyrimidin-5-yl)-4-methyl-1-phenyl-1H-pyrazol-5-yl)-3-((3S,4R)-4-(3-fluorophenyl)-1-(2-methoxyethyl)pyrrolidin-3-yl)urea], the IC50 in test [1] was determined as 44 nM. This molecule registered an IC50 in the test on KM12 cells of 6.46 nM. Moreover, at TPM3-TRKA fusion protein, the inhibition at 0.01 µM was greater than 80% and the inhibition at 0.1 µM is greater than 80%.

`COCCN1C[C@@H](NC(=O)Nc2c(C)c(-c3cnc(N4CCN(CCCc5ccc6c(c5)C(=O)N(C5CCC(=O)NC5=O)C6=O)CC4)nc3)nn2-c2ccccc2)[C@H](c2cccc(F)c2)C1` (stereo partly drawn) [CPD-032, 1-(3-(2-(4-(3-(2-(2,6-dioxopiperidin-3-yl)-1,3-dioxoisoindolin-5-yl)propyl)piperazin-1-yl)pyrimidin-5-yl)-4-methyl-1-phenyl-1H-pyrazol-5-yl)-3-((3S,4R)-4-(3-fluorophenyl)-1-(2-methoxyethyl)pyrrolidin-3-yl)urea] displayed an IC50 in test [1] of 18.2 nM. In the test on KM12 cells, this molecule showed an IC50 of 13.7 nM. On TPM3-TRKA fusion protein, the inhibition at 0.01 µM is greater than 80% and the inhibition at 0.1 µM is greater than 80%.

Molecule `COCCN1C[C@@H](NC(=O)Nc2c(C)c(-c3cnc(N4CCN(C(=O)COc5cccc6c5C(=O)N(C5CCC(=O)NC5=O)C6=O)CC4)nc3)nn2-c2ccccc2)[C@H](c2cccc(F)c2)C1` (stereo partly drawn) [CPD-024, 1-(3-(2-(4-(2-((2-(2,6-dioxopiperidin-3-yl)-1,3-dioxoisoindolin-4-yl)oxy)acetyl)piperazin-1-yl)pyrimidin-5-yl)-4-methyl-1-phenyl-1H-pyrazol-5-yl)-3-((3S,4R)-4-(3-fluorophenyl)-1-(2-methoxyethyl)pyrrolidin-3-yl)urea] returned an IC50 in test [1] of 314 nM. In the test with KM12 cells, this molecule registered an IC50 of 86.9 nM. Moreover, on TPM3-TRKA fusion protein, the inhibition at 0.01 µM was less than 50% and the inhibition at 0.1 µM fell in the range of 50 to 800%.

`COCCN1C[C@@H](NC(=O)Nc2c(C)c(-c3cnc(N4CCN(C(=O)CNC(=O)C[C@H](NC(=O)[C@@H]5C[C@@H](O)CN5C(=O)[C@@H](NC(=O)C5(F)CC5)C(C)(C)C)c5ccc(-c6scnc6C)cc5)CC4)nc3)nn2-c2ccccc2)[C@H](c2cccc(F)c2)C1` [CPD-011, (2S,4R)-1-((S)-2-(1-fluorocyclopropane-1-carboxamido)-3,3-dimethylbutanoyl)-N-((S)-3-((2-(4-(5-(5-(3-((3S,4R)-4-(3-fluorophenyl)-1-(2-methoxyethyl)pyrrolidin-3-yl)ureido)-4-methyl-1-phenyl-1H-pyrazol-3-yl)pyrimidin-2-yl)piperazin-1-yl)-2-oxoethyl)amino)-1-(4-(4-methylthiazol-5-yl)phenyl)-3-oxopropyl)-4-hydroxypyrrolidine-2-carboxamide] gave an IC50 in the test on KM12 cells of 119 nM. Also, on TPM3-TRKA fusion protein, the inhibition at 0.01 µM was less than 50% and the inhibition at 0.1 µM lay in the range of 50 to 800%.
